Like-named read-outs stand apart in the source and are kept apart here.
Assays:
[1] = target: T1, human adenosine A2b receptor (Homo sapiens, UniProt P29275); test: Adenosine A2b receptor reporter gene assay (luciferase, CHO-A2b cells); assay type: cell-based; details: CHO cells transfected with human A2b receptor and pCRE-LUCI; NECA as agonist; KB from shift of the curve at 100 nM or 1 μM antagonist
T1 construct: expressed in transfected cells; host or cells: CHO cells, co-transfected with the pCRE-LUCI reporter plasmid
T1 sequence (P29275 1-332): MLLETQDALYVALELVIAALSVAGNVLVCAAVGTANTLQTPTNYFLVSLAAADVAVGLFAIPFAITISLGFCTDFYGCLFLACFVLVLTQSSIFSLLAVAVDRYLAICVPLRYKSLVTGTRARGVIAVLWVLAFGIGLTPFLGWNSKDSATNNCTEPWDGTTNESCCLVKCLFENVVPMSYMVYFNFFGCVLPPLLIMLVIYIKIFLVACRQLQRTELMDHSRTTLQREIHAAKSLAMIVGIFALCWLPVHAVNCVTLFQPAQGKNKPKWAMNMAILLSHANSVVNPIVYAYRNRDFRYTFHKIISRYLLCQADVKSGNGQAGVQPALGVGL
Experimental: Adenosine A2b Receptor Reporter Gene Assay a) Culturing of Chinese Hamster Ovary (CHO) A2b Cell Line
CHO cells transfected with a Luciferase-expressing reporter plasmid (pCRE-LUCI) and with a plasmid carrying the human adenosine A2b receptor structural gene (pA2bRCV) are routinely cultured in Dulbecco's Modified Eagle Medium (DMEM)—supplemented with 10% v/v fetal calf serum (FCS), 2 mM L-glutamine, 0.4 mg/ml L-proline, 1 nM sodium selenite, 0.5 mg/ml Hygromycin B and 1 mg/ml Geneticin—at 37° C., 5% CO2 and 100% humidity. The cells are left to grow to confluence for 4–5 days. The cells obtained are passaged using trypsin/EDTA and split at a ratio of 1 in 5. […]
b) Preparation of Cells for Assay
Prior to the assay, the CHO-A2b cells are plated onto white 96-well View Plate tissue culture plates (Packard) at a density of 50,000 cells per well in […] of DMEM, and the plates are incubated at 37° C., 5% CO2 and 100% humidity. […]
c) Preparation of Reference and Test Compounds
10 mM solutions of the reference compound, Xanthine Amine Cogener (XAC), and the test compound in dimethyl sulfoxide (DMSO) are prepared. The solutions are further diluted with DMSO to 100 μM, then diluted to 10 μM, and finally to 250 nM or 2.5 μM with Assay Buffer (DMEM Phenol Red-free tissue culture media supplemented with 10 μM Rolipram and 10 U/ml adenosine deaminase (ADA). The resulting solutions (40 μl) are added to the cells in the appropriate wells, the final concentration per well being 100 nM or 1 μM, and the plates are incubated at 37° C., 5% CO2 and 100% humidity. […]
d) Luciferase Reporter Gene Assay
5′-N-ethylcarboxamidoadenosine (NECA), an adenosine A2b agonist, is prepared as a […] solution in DMSO and then diluted to 100 μM with Assay Buffer. This solution is serially diluted in Assay Buffer to give a series of 10 NECA concentrations from 100 to 0.01 μM. 10 μl portions of the resulting NECA solutions are added to the mixtures of CHO-A2b cells and reference or test compound solutions prepared as described above (preincubated for 30 minutes), final concentrations ranging from 10 to 0.0005 μM per well. The cells are incubated at 37° C., 5% CO2 and 100% humidity for 3 hours to induce release of cAMP, which then binds to cAMP binding protein (CBP) and the resulting complex interacts with the reporter plasmid to express Luciferase. 100 μl of Steady-Glo, a Luciferase assay substrate from Promega, is added to all wells to lyse the cells and generate luminescence in proportion to the amount of Lucifrease produced. The plates are left for a minimum of 5 minutes before being read on the luminescence program of a Topcount NXT microplate scintillation counter (ex Packard). Concentration—response curves are plotted from the luminescence data using Activitybase software and KB values for the antagonists under test are calculated from the shifts of the curve at a particular concentration (KB=[antagonist]/(concentration ratio−1)

[2] = target: T2, adenosine A3 receptor (Homo sapiens, UniProt P0DMS8)
T2 sequence (P0DMS8 1-318): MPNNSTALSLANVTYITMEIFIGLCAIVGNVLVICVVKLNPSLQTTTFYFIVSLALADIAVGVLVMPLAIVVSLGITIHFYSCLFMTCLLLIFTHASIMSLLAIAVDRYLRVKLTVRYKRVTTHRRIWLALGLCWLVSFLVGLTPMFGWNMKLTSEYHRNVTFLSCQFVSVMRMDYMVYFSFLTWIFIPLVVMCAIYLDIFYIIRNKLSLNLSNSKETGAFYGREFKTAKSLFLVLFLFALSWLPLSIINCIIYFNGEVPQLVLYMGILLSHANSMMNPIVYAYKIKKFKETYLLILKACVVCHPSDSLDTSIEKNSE

[3] = read-out: KI value in adenosine A3 receptor assay, assay as described in WO 99/64418

Molecule | Kb [1] [µM] | melting point [°C] | Ki [2] [µM] | Ki [2, 3] [µM]
COc1ccc(C(=O)Nc2nc(-c3cccc(C#N)c3)c(-n3cncn3)s2)cc1 [Example 12, N-[4-(3-Cyano-phenyl)-5-[1,2,4]triazol-1-yl-thiazol-2-yl]-4-methoxy-benzamide] | 0.031 | 292 to 294 |  | 
COCCOc1cncc(Nc2nc(-c3cccc(C#N)c3)c(-n3cncn3)s2)n1 [Example 38] | 0.012 |  | 0.004 | 
Cc1cccc(Nc2nc(-c3cccc(C#N)c3)c(-n3cncn3)s2)n1 [Example 15, 3-[2-(6-Methyl-pyridin-2-ylamino)-5-[1,2,4]triazol-1-yl-thiazol-4-yl]-benzonitrile] | 0.02 |  |  | 
Cn1cccc1C(=O)Nc1nc(-c2cccc(C#N)c2)c(-n2cncn2)s1 [Example 36, 1-Methyl-1H-pyrrole-2-carboxylic Acid [4-(3-cyano-phenyl)-5-[1,2,4]triazol-1-yl-thiazol-2-yl]-amide] | 0.017 | 245 to 247 |  | 
N#Cc1cccc(-c2nc(Nc3cnccn3)sc2-n2cncn2)c1 [Example 27, (3-[2-(Pyrazin-2-ylamino)-5-[1,2,4]triazol-1-yl-thiazol-4-yl]-benzonitrile)] | 0.01 |  |  | 0.016
(3-[5-(2-Methyl-imidazol-1-yl)-2-(pyrazin-2-ylamino)-triazol-4-yl]-benzonitrile) [Example 35] | 0.004 |  |  | 0.01

Source: patent publication US7109202B2, “Aminothaizoles and their use as adenosine receptor antagonists” (Novartis AG, priority 2000, dated 2006)
